Converted amounts (≈) assume the structure as drawn.
Assays:
Type in all cases: functional
Staphylococcus aureus [1] = assay: Antibacterial activity against methicillin-resistant Staphylococcus aureus ATCC 33591 assessed as growth inhibition after 18 hrs by agar dilution method; details: ATCC 33591, 18 h
Staphylococcus aureus [2] = assay: Antibacterial activity against methicillin-sensitive Staphylococcus aureus ATCC 29213 assessed as growth inhibition after 18 hrs by agar dilution method; details: ATCC 29213, 18 h
Klebsiella pneumoniae [3] = assay: Antibacterial activity against New Delhi metallo-beta-lactamase 1 producing Klebsiella pneumoniae ATCC BAA-2146 assessed as growth inhibition after 18 hrs by agar dilution method; details: ATCC BAA-2146, 18 h
Staphylococcus aureus [4] = assay: Antibacterial activity against methicillin-resistant Staphylococcus aureus R6101 assessed as growth inhibition after 18 hrs by agar dilution method; details: R6101, 18 h
Enterococcus faecalis [5] = assay: Antibacterial activity against vancomycin-sensitive Enterococcus faecalis 09-8 assessed as growth inhibition after 18 hrs by agar dilution method; details: 09-8, 18 h
Enterococcus faecalis [6] = assay: Antibacterial activity against vancomycin-sensitive Enterococcus faecalis ATCC 29212 assessed as growth inhibition after 18 hrs by agar dilution method; details: ATCC 29212, 18 h
Klebsiella pneumoniae [7] = assay: Antibacterial activity against extended spectrum beta-lactamase producing Klebsiella pneumoniae ATCC 700603 assessed as growth inhibition after 18 hrs by agar dilution method; details: ATCC 700603, 18 h
Staphylococcus aureus [8] = assay: Antibacterial activity against thiostrepton-resistant Staphylococcus aureus ATCC 6538P assessed as growth inhibition after 18 hrs by agar dilution method
Pseudomonas aeruginosa = assay: Antibacterial activity against beta-lactamase producing Pseudomonas aeruginosa ATCC 27853 assessed as growth inhibition after 18 hrs by agar dilution method; details: ATCC 27853, 18 h
Enterococcus faecalis [9] = assay: Antibacterial activity against vancomycin-resistant Enterococcus faecalis ATCC 51299 assessed as growth inhibition after 18 hrs by agar dilution method; details: ATCC 51299, 18 h
Escherichia coli [10] = assay: Antibacterial activity against beta-lactamase producing Escherichia coli 09-20 assessed as growth inhibition after 18 hrs by agar dilution method; details: 09-20, 18 h
[11] = tested on: Staphylococcus epidermidis; assay: Antibacterial activity against methicillin-sensitive Staphylococcus epidermidis ATCC 12228 assessed as growth inhibition after 18 hrs by agar dilution method; details: ATCC 12228, 18 h
Enterococcus faecium [12] = assay: Antibacterial activity against vancomycin-sensitive Enterococcus faecium 09-10 assessed as growth inhibition after 18 hrs by agar dilution method; details: 09-10, 18 h
Enterococcus faecalis [13] = assay: Antibacterial activity against vancomycin-resistant Enterococcus faecalis R6512 assessed as growth inhibition after 18 hrs by agar dilution method; details: R6512, 18 h
Morganella morganii = assay: Antibacterial activity against beta-lactamase producing Morganella morganii ATCC 25830 assessed as growth inhibition after 18 hrs by agar dilution method; details: ATCC 25830, 18 h
Staphylococcus aureus [14] = assay: Antibacterial activity against methicillin-resistant Staphylococcus aureus 09-13 assessed as growth inhibition after 18 hrs by agar dilution method; details: 09-13, 18 h
Micrococcus luteus = assay: Antibacterial activity against apramycin-resistant Micrococcus luteus ATCC 10240 assessed as growth inhibition after 18 hrs by agar dilution method; details: ATCC 10240, 18 h
Staphylococcus aureus [15] = assay: Antibacterial activity against methicillin-sensitive Staphylococcus aureus 09-6 assessed as growth inhibition after 18 hrs by agar dilution method; details: 09-6, 18 h
Escherichia coli [16] = assay: Antibacterial activity against extended spectrum beta-lactamase producing Escherichia coli 09-1 assessed as growth inhibition after 18 hrs by agar dilution method; details: 09-1, 18 h
Enterococcus faecium [17] = assay: Antibacterial activity against vancomycin-resistant Enterococcus faecium ATCC 700221 assessed as growth inhibition after 18 hrs by agar dilution method; details: ATCC 700221, 18 h
Enterococcus faecalis [18] = assay: Antibacterial activity against vancomycin-resistant Enterococcus faecalis W4138 assessed as growth inhibition after 18 hrs by agar dilution method; details: W4138, 18 h
[19] = tested on: Staphylococcus epidermidis; assay: Antibacterial activity against methicillin-resistant Staphylococcus epidermidis 09-3 assessed as growth inhibition after 18 hrs by agar dilution method; details: 09-3, 18 h
[20] = tested on: Staphylococcus epidermidis; assay: Antibacterial activity against methicillin-sensitive Staphylococcus epidermidis 09-9 assessed as growth inhibition after 18 hrs by agar dilution method; details: 09-9, 18 h

| Structure (SMILES) | MIC (Staphylococcus aureus [1]) [µg/mL] | MIC (Staphylococcus aureus [2]) [µg/mL] | MIC (Klebsiella pneumoniae [3]) [µg/mL] | MIC (Staphylococcus aureus [4]) [µg/mL] | MIC (Enterococcus faecalis [5]) [µg/mL] | MIC (Enterococcus faecalis [6]) [µg/mL] | MIC (Klebsiella pneumoniae [7]) [µg/mL] | MIC (Pseudomonas aeruginosa) [µg/mL] | MIC (Enterococcus faecalis [9]) [µg/mL] | MIC (Escherichia coli [10]) [µg/mL] | MIC [11] [µg/mL] | MIC (Enterococcus faecium [12]) [µg/mL] | MIC (Enterococcus faecalis [13]) [µg/mL] | MIC (Morganella morganii) [µg/mL] | MIC (Staphylococcus aureus [14]) [µg/mL] | MIC (Staphylococcus aureus [15]) [µg/mL] | MIC (Escherichia coli [16]) [µg/mL] | MIC (Enterococcus faecium [17]) [µg/mL] | MIC (Enterococcus faecalis [18]) [µg/mL] | MIC [19] [µg/mL] | further results |
| --- | --- | --- | --- | --- | --- | --- | --- | --- | --- | --- | --- | --- | --- | --- | --- | --- | --- | --- | --- | --- | --- |
| CC[C@H]1OC(=O)[C@H](C)[C@@H](O[C@H]2C[C@@](C)(OC)[C@@H](O)[C@H](C)O2)[C@H](C)[C@@H](O[C@@H]2O[C@H](C)C[C@H](N(C)C)[C@H]2O)[C@](C)(O)C[C@@H](C)CN(C)[C@H](C)[C@@H](O)[C@]1(C)O [AZITHROMYCIN] | > 256 | 2 (≈ 2.67 µM) | 64 (≈ 85.4 µM) | > 256 | > 256 | 8 (≈ 10.7 µM) | 64 (≈ 85.4 µM) | 256 (≈ 342 µM) | > 256 | > 256 | > 256 | > 256 | > 256 | 64 (≈ 85.4 µM) | > 256 | 2 (≈ 2.67 µM) | 64 (≈ 85.4 µM) | > 256 | > 256 | > 256 | MIC (Staphylococcus aureus [8]): > 256 µg/mL; MIC (Micrococcus luteus): 2 µg/mL (≈ 2.67 µM) |
| CC[C@@H]1[C@@H](C)O[C@@](OC)([C@@H](C)[C@H](O)[C@H](C)[C@H]2OC(=O)/C=C/C=C/[C@H](C)[C@@H]([C@@H](C)[C@@H](O)[C@H](C)[C@@]3(OC)C[C@@H](O[C@H]4C[C@H](O)[C@H](O)[C@H](C)O4)[C@H](CC)[C@@H](C)O3)OC(=O)/C=C/C=C/[C@@H]2C)C[C@H]1O[C@H]1C[C@H](O)[C@H](O)[C@H](C)O1 |  |  | > 256 |  |  |  | > 256 | > 256 |  | > 256 |  | 32 (≈ 30.4 µM) |  | > 256 |  |  | > 256 |  |  |  |  |
| CC[C@@H]1[C@@H](C)O[C@@](OC)([C@@H](C)[C@H](O)[C@H](C)[C@H]2OC(=O)/C=C/C=C/[C@H](C)[C@@H]([C@@H](C)[C@@H](O)[C@H](C)[C@@]3(OC)C[C@@H](O[C@H]4C[C@H](O)[C@H](O)[C@H](C)O4)[C@H](C)[C@@H](C)O3)OC(=O)/C=C/C=C/[C@@H]2C)C[C@H]1O[C@H]1C[C@H](O)[C@H](O)[C@H](C)O1 | 32 (≈ 30.8 µM) | 32 (≈ 30.8 µM) | > 128 | 16 (≈ 15.4 µM) | 64 (≈ 61.6 µM) | 64 (≈ 61.6 µM) | > 128 | > 128 | 64 (≈ 61.6 µM) | > 128 | 64 (≈ 61.6 µM) | 64 (≈ 61.6 µM) | > 128 | > 128 | 32 (≈ 30.8 µM) | 32 (≈ 30.8 µM) | > 128 | 64 (≈ 61.6 µM) | 64 (≈ 61.6 µM) | 64 (≈ 61.6 µM) | MIC (Staphylococcus aureus [8]): > 128 µg/mL; MIC (Micrococcus luteus): 128 µg/mL (≈ 123 µM) |
| CC[C@@H]1[C@@H](C)O[C@@](O)([C@@H](C)[C@H](O)[C@H](C)[C@H]2OC(=O)/C=C/C=C/[C@H](C)[C@@H]([C@@H](C)[C@@H](O)[C@H](C)[C@@]3(O)C[C@@H](O[C@H]4C[C@H](O)[C@H](O)[C@H](C)O4)[C@H](C)[C@@H](C)O3)OC(=O)/C=C/C=C/[C@@H]2C)C[C@H]1O[C@H]1C[C@H](O)[C@H](O)[C@H](C)O1 | 2 (≈ 1.98 µM) | 2 (≈ 1.98 µM) | > 64 | 2 (≈ 1.98 µM) | 16 (≈ 15.8 µM) | 2 (≈ 1.98 µM) | > 64 | > 64 | 2 (≈ 1.98 µM) | > 64 | 4 (≈ 3.96 µM) | > 64 | 2 (≈ 1.98 µM) | > 64 | 2 (≈ 1.98 µM) | 2 (≈ 1.98 µM) | > 64 | 2 (≈ 1.98 µM) | 4 (≈ 3.96 µM) | 4 (≈ 3.96 µM) | MIC (Staphylococcus aureus [8]): 2 µg/mL (≈ 1.98 µM); MIC (Micrococcus luteus): 2 µg/mL (≈ 1.98 µM) |
| CC[C@@H]1[C@@H](C)OC([C@@H](C)[C@H](O)[C@H](C)[C@H]2OC(=O)/C=C/C=C/[C@H](C)[C@@H]([C@@H](C)[C@@H](O)[C@H](C)[C@@]3(O)C[C@@H](O[C@H]4C[C@H](O)[C@H](O)[C@H](C)O4)[C@H](CC)[C@@H](C)O3)OC(=O)/C=C/C=C/[C@@H]2C)=C[C@H]1O[C@H]1C[C@H](O)[C@H](O)[C@H](C)O1 | 2 (≈ 1.99 µM) | 2 (≈ 1.99 µM) | > 64 | > 64 | 2 (≈ 1.99 µM) | 2 (≈ 1.99 µM) | > 64 | > 64 | 2 (≈ 1.99 µM) | > 64 | > 64 | > 64 | 4 (≈ 3.97 µM) | > 64 | 2 (≈ 1.99 µM) | 2 (≈ 1.99 µM) | > 64 | 4 (≈ 3.97 µM) | 4 (≈ 3.97 µM) | > 64 | MIC (Staphylococcus aureus [8]): 4 µg/mL (≈ 3.97 µM); MIC (Micrococcus luteus): 2 µg/mL (≈ 1.99 µM) |
| CN[C@H](CC(C)C)C(=O)N[C@H]1C(=O)N[C@@H](CC(N)=O)C(=O)N[C@H]2C(=O)N[C@H]3C(=O)N[C@H](C(=O)N[C@H](C(=O)O)c4cc(O)cc(O)c4-c4cc3ccc4O)[C@H](O)c3ccc(c(Cl)c3)Oc3cc2cc(c3O[C@@H]2O[C@H](CO)[C@@H](O)[C@H](O)[C@H]2O[C@H]2C[C@](C)(N)[C@H](O)[C@H](C)O2)Oc2ccc(cc2Cl)[C@H]1O [VANCOMYCIN] |  |  |  |  | 1 (≈ 0.69 µM) | 1 (≈ 0.69 µM) |  |  | 4 (≈ 2.76 µM) |  | 0.5 (≈ 0.345 µM) |  | > 256 |  |  |  |  |  | 4 (≈ 2.76 µM) |  | MIC [20]: 0.5 µg/mL (≈ 0.345 µM) |
| Cc1onc(-c2ccccc2)c1C(=O)N[C@@H]1C(=O)N2[C@@H]1SC(C)(C)[C@@H]2C(=O)O [OXACILLIN] | > 256 | 0.5 (≈ 1.25 µM) | > 256 | > 256 | > 256 | 4 (≈ 9.96 µM) | > 256 | > 256 | > 256 | > 256 | > 256 | > 256 |  | 256 (≈ 638 µM) | > 256 | 0.5 (≈ 1.25 µM) | > 256 | > 256 |  | > 256 |  |
| CC[C@H]1OC(=O)[C@H](C)[C@@H](O[C@H]2C[C@@](C)(OC)[C@@H](O)[C@H](C)O2)[C@H](C)[C@@H](O[C@@H]2O[C@H](C)C[C@H](N(C)C)[C@H]2O)[C@](C)(O)C[C@@H](C)C(=O)[C@H](C)[C@@H](O)[C@]1(C)O [ERYTHROMYCIN] | 256 (≈ 349 µM) | 0.25 (≈ 0.341 µM) | > 256 |  | 32 (≈ 43.6 µM) | 16 (≈ 21.8 µM) | > 256 | > 256 | 8 (≈ 10.9 µM) | > 256 | 16 (≈ 21.8 µM) | > 256 |  | > 256 | > 256 | 0.25 (≈ 0.341 µM) | > 256 | 64 (≈ 87.2 µM) |  | > 256 |  |
| CC[C@@H]1[C@@H](C)O[C@@](OC)([C@@H](C)[C@H](O)[C@H](C)[C@H]2OC(=O)/C=C/C=C/[C@H](C)[C@@H]([C@@H](C)[C@@H](O)[C@H](C)[C@@]3(O)C[C@@H](O[C@H]4C[C@H](O)[C@H](O)[C@H](C)O4)[C@H](CC)[C@@H](C)O3)OC(=O)/C=C/C=C/[C@@H]2C)C[C@H]1O[C@H]1C[C@H](O)[C@H](O)[C@H](C)O1 | 2 (≈ 1.92 µM) | 2 (≈ 1.92 µM) | > 256 | 1 (≈ 0.962 µM) | 2 (≈ 1.92 µM) | 32 (≈ 30.8 µM) | > 256 | > 256 | 1 (≈ 0.962 µM) | > 256 | 2 (≈ 1.92 µM) | 2 (≈ 1.92 µM) | 1 (≈ 0.962 µM) | > 256 | 2 (≈ 1.92 µM) | 2 (≈ 1.92 µM) | > 256 | 2 (≈ 1.92 µM) | 2 (≈ 1.92 µM) | 2 (≈ 1.92 µM) | MIC (Staphylococcus aureus [8]): 2 µg/mL (≈ 1.92 µM); MIC [20]: 2 µg/mL (≈ 1.92 µM); MIC (Micrococcus luteus): 2 µg/mL (≈ 1.92 µM) |

— ChEMBL document CHEMBL3085634, “Identification of elaiophylin derivatives from the marine-derived actinomycete Streptomyces sp. 7-145 using PCR-based screening” (2013)
